From the supplement of paper PMC11451515

Tests used:
Settings in all cases: 48 h
[1] = tested on: NOMO1; experiment: cell viability relative to DMSO control; higher = less cytotoxic
Summary of the method: (§1)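 NOMO1, SEM and P12-Ichikawa leukemia cells spent at least four passages adapting to each medium before use. They were seeded at 500 cells/well (NOMO1, SEM) or 1000 cells/well (P12-Ichikawa) in 5 μl in 1536-well plates and pin-dosed with library compounds in DMSO at 11 threefold steps from 47 μM down to 0.79 nM. After 48 h at 37°C, CellTiter-Glo One luminescence was read. Viability is reported as a percentage of the DMSO wells on each plate, with cell-free wells as background.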

[2] = tested on: P12-Ichikawa; experiment: as above
Summary of the method: as §1

[3] = tested on: SEM cells; experiment: as above
Summary of the method: as §1

[4] = tested on: NOMO1; experiment: AUC of viability dose-response curve (% viability x log10 dose units); higher = less sensitive
Summary of the method: (§2)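 Medium-adapted leukemia cells in 1536-well plates, at 500 or 1000 cells/well, were incubated for 48 h at 37°C with library compounds in DMSO at 11 threefold doses from 47 μM to 0.79 nM. CellTiter-Glo One luminescence normalised per plate to DMSO and cell-free wells was fitted with a four-parameter log-logistic model over log10 doses. Area under the curve was integrated from this fit by trapezoidal rule, with curves beyond full viability scaled and failed quality-control curves removed.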

[5] = tested on: P12-Ichikawa; experiment: as above
Summary of the method: as §2

[6] = tested on: SEM cells; experiment: as above
Summary of the method: as §2

O=C(O)[C@H](Cc1c[nH]c2ccccc12)N1C(=O)c2ccccc2C1=O
cell viability [%]
Settings | [1] | [2] | [3]
HPLM + 10% dialyzed FBS, 0.000781 µM | 96.1 | 98.3 | 85.2
HPLM + 10% dialyzed FBS, 0.00234 µM | 107 | 109 | 63.5
HPLM + 10% dialyzed FBS, 0.00702 µM | 103 | 104 | 96.4
HPLM + 10% dialyzed FBS, 0.0211 µM | 99.4 | 106 | 92.4
HPLM + 10% dialyzed FBS, 0.0632 µM | 110 | 99.5 | 99.3
HPLM + 10% dialyzed FBS, 0.19 µM | 91.5 | 99.8 | 102
HPLM + 10% dialyzed FBS, 0.569 µM | 90.8 | 105 | 91.7
HPLM + 10% dialyzed FBS, 1.71 µM | 103 | 110 | 97.8
HPLM + 10% dialyzed FBS, 5.12 µM | 119 | 103 | 105
HPLM + 10% dialyzed FBS, 15.4 µM | 99.6 | 102 | 99.4
HPLM + 10% dialyzed FBS, 46.1 µM | 117 | 99.3 | 83.8
RPMI 5 mM glucose + 10% FBS, 0.000781 µM | 89.8 | 89.6 | 99.1
RPMI 5 mM glucose + 10% FBS, 0.00234 µM | 83.3 | 91.9 | 52.9
RPMI 5 mM glucose + 10% FBS, 0.00702 µM | 97 | 91.3 | 105
RPMI 5 mM glucose + 10% FBS, 0.0211 µM | 89.1 | 93.4 | 112
RPMI 5 mM glucose + 10% FBS, 0.0632 µM | 87.9 | 98.3 | 100
RPMI 5 mM glucose + 10% FBS, 0.19 µM | 80.8 | 103 | 108
RPMI 5 mM glucose + 10% FBS, 0.569 µM | 89.3 | 103 | 90.7
RPMI 5 mM glucose + 10% FBS, 1.71 µM | 97.1 | 97 | 93.3
RPMI 5 mM glucose + 10% FBS, 5.12 µM | 90.4 | 101 | 92
RPMI 5 mM glucose + 10% FBS, 15.4 µM | 92.3 | 101 | 84.8
RPMI 5 mM glucose + 10% FBS, 46.1 µM | 86.1 | 94.3 | 77.4
RPMI 5 mM glucose + 10% dialyzed FBS, 0.000781 µM | 92.5 | 91.2 | 89.8
RPMI 5 mM glucose + 10% dialyzed FBS, 0.00234 µM | 99.1 | 90.5 | 41.9
RPMI 5 mM glucose + 10% dialyzed FBS, 0.00702 µM | 104 | 91.8 | 96.4
RPMI 5 mM glucose + 10% dialyzed FBS, 0.0211 µM | 101 | 102 | 94.8
RPMI 5 mM glucose + 10% dialyzed FBS, 0.0632 µM | 98.7 | 94.4 | 83.8
RPMI 5 mM glucose + 10% dialyzed FBS, 0.19 µM | 94.1 | 99.5 | 87.4
RPMI 5 mM glucose + 10% dialyzed FBS, 0.569 µM | 100 | 99 | 99.3
RPMI 5 mM glucose + 10% dialyzed FBS, 1.71 µM | 101 | 105 | 84.7
RPMI 5 mM glucose + 10% dialyzed FBS, 5.12 µM | 103 | 95 | 97.1
RPMI 5 mM glucose + 10% dialyzed FBS, 15.4 µM | 99.6 | 98.6 | 81.9
RPMI 5 mM glucose + 10% dialyzed FBS, 46.1 µM | 83.3 | 92.2 | 68

AUC of viability dose-response curve
Settings | [4] | [5] | [6]
HPLM + 10% dialyzed FBS | 440 | 474 | 445
RPMI 5 mM glucose + 10% FBS | 426 | 462 | 440
RPMI 5 mM glucose + 10% dialyzed FBS | 470 | 460 | 405
